# Where two headings read alike, the source gives them in different places.
# Experiments:
# [1] = tested on: Mtb; assay: microbe, parasite or virus in culture; type: cell-based, Mycobacterium tuberculosis; details: Mycobacterium tuberculosis
# [2] = in vitro; details: African green monkey
# [3] = read-out: MIC, microplate alamar blue assay (MABA; I)
SMILES,MIC ([1]; read-out: MIC (I)),CC50 [2],"MIC [1, 3]"
CCOC(=O)NC(=O)c1cc(C)sc1NC(=O)c1nc2ccccc2s1 [Compound 14],< 1 µg/mL,–,–
CCOC(=O)NC(=O)c1cc(Cl)sc1NC(=O)c1nc2ccccc2s1 [Compound 15],< 1 µg/mL,–,–
CCOC(=O)NC(=O)c1cc(F)sc1NC(=O)c1nc2ccccc2s1 [Compound 16],< 1 µg/mL,25 to 50 µg/mL,–
O=C(NC(=O)c1cc(F)sc1NC(=O)c1nc2ccccc2s1)OCC(F)(F)F [Compound 17],< 1 µg/mL,< 25 µg/mL,–
CCCCOC(=O)NC(=O)c1ccsc1NC(=O)c1nc2ccccc2s1 [Compound 19],< 1 µg/mL,–,–
COC(=O)NC(=O)c1ccsc1NC(=O)c1nc2ccccc2s1 [Compound 21],< 1 µg/mL,–,–
CCOC(=O)NC(=O)c1ccsc1NC(=O)c1cncc(NC(C)=O)c1 [Compound 22],< 1 µg/mL,–,–
CC(C)(C)OC(=O)NC(=O)c1ccsc1NC(=O)c1nc2ccccc2s1 [Compound 23],< 1 µg/mL,–,–
CC(OC(=O)NC(=O)c1ccsc1NC(=O)c1nc2ccccc2s1)C(F)(F)F (centres unmarked) [Compound 24],< 1 µg/mL,< 25 µg/mL,–
CC(C)(OC(=O)NC(=O)c1ccsc1NC(=O)c1nc2ccccc2s1)C(F)(F)F [Compound 25],< 1 µg/mL,25 to 50 µg/mL,–
CCOC(=O)NC(=O)c1ccsc1NC(=O)c1ccc2ocnc2c1 [Compound 26],< 1 µg/mL,> 50 µg/mL,–
CCOC(=O)NC(=O)c1ccsc1NC(=O)c1ccc2c(c1)OCO2 [Compound 27],< 1 µg/mL,< 25 µg/mL,–
O=C(NC(=O)c1ccsc1NC(=O)c1nc2ccccc2s1)OC1CCCCC1 [Compound 30],< 1 µg/mL,> 50 µg/mL,–
O=C(NC(=O)c1ccsc1NC(=O)c1nc2ccccc2s1)OC1CCCC1 [Compound 31],< 1 µg/mL,> 50 µg/mL,–
O=C(NC(=O)c1ccsc1NC(=O)c1nc2ccccc2s1)OCCN1CCOCC1 [Compound 38],< 1 µg/mL,> 50 µg/mL,–
CN(C)CCOC(=O)NC(=O)c1ccsc1NC(=O)c1nc2ccccc2s1 [Compound 39],> 3 µg/mL,> 50 µg/mL,–
O=C(NC(=O)c1ccsc1NC(=O)c1nc2ccccc2s1)OCC(F)F [Compound 40],< 1 µg/mL,< 25 µg/mL,–
CCOC(=O)NC(=O)c1ccsc1NC(=O)c1ccc2ncsc2c1 [Compound 42],< 1 µg/mL,< 25 µg/mL,–
CCOC(=O)NC(=O)c1c(C)csc1NC(=O)c1nc2ccccc2s1 [Compound 44],1 to 3 µg/mL,> 50 µg/mL,–
CN(C)C(=O)NC(=O)c1ccsc1NC(=O)c1nc2ccccc2s1 [Compound 45],> 3 µg/mL,> 50 µg/mL,–
CCOC(=O)NC(=O)c1cnn(C)c1NC(=O)c1nc2ccccc2s1 [Compound 105],> 3 µg/mL,–,–

SMILES,MIC ([1]; read-out: MIC (I)),CC50 [2],"MIC [1, 3]"
CCOC(=O)NC(=O)c1ncsc1NC(=O)c1nc2ccccc2s1 [Compound 106],> 3 µg/mL,–,–
O=C(Nc1sccc1C(=O)N1CCOC1=O)c1nc2ccccc2s1 [Compound 107],> 3 µg/mL,–,–
CCOS(=O)(=O)NC(=O)c1ccsc1NC(=O)c1nc2ccccc2s1 [Compound 108],> 3 µg/mL,–,–
CCNC(=O)NC(=O)c1ccsc1NC(=O)c1nc2ccccc2s1 [Compound 109],> 3 µg/mL,–,–
Cc1nnc(NC(=O)c2ccsc2NC(=O)c2nc3ccccc3s2)s1 [Compound 110],> 3 µg/mL,–,–
CCOC(=O)NC(=O)c1ccsc1NC(=O)c1cc(NC(C)=O)ccn1 [Compound 111],> 3 µg/mL,–,–
CCOC(=O)NC(=O)c1ccsc1NCc1nc2ccccc2s1 [Compound 209],–,> 50 µg/mL,–
Nc1nnc(-c2ccsc2NC(=O)c2nc3ccccc3s2)o1 [Compound 210],–,> 50 µg/mL,–
CCOC(=O)NC(=O)c1ccccc1NC(=O)c1nc2ccccc2s1 [Compound 214],–,> 50 µg/mL,–
CCOC(=O)NC(=O)c1c(NC(=O)c2nc3ccccc3s2)sc(C#N)c1C [Compound 216],–,> 50 µg/mL,–
CCOC(=O)NC(=O)c1ccsc1NC(=O)c1nc2ccc(C)nc2s1 [Compound 224],–,> 50 µg/mL,–
CN1CCN(C(=O)c2ccsc2NC(=O)c2nc3ccccc3s2)CC1 [Compound 225],–,25 to 50 µg/mL,–
O=C(Nc1sccc1C(=O)N1CCNC1=O)c1nc2ccccc2s1 [Compound 226],–,> 50 µg/mL,–
CC(C)(C)OC(=O)N1CCN(C(=O)c2ccsc2NC(=O)c2nc3ccccc3s2)CC1 [Compound 227],–,> 50 µg/mL,–
O=C(Nc1sccc1C(=O)N1CCNCC1)c1nc2ccccc2s1 [Compound 228],–,< 25 µg/mL,–
CCOC(=O)NC(=O)c1ccsc1NC(=O)c1csc2c1CCN(S(C)(=O)=O)C2 [Compound 230],–,> 50 µg/mL,–
CCOC(=O)NC(=O)c1ccsc1NC(=O)c1csc2c1CCCC2 [Compound 231],–,< 25 µg/mL,–
CCOC(=O)NC(=O)c1ccsc1NC(=O)c1cc2c(s1)CCN(S(C)(=O)=O)C2 [Compound 232],–,> 50 µg/mL,–
CCOC(=O)NC(=O)c1ccsc1NC(=O)c1nc2c(s1)N(S(C)(=O)=O)CCC2 [Compound 233],–,> 50 µg/mL,–
COC(=O)CNC(=O)c1ccsc1NC(=O)c1nc2ccccc2s1 [Compound 234],–,> 50 µg/mL,–
CNC(=O)CNC(=O)c1ccsc1NC(=O)c1nc2ccccc2s1 [Compound 235],–,> 50 µg/mL,–

SMILES,MIC ([1]; read-out: MIC (I)),CC50 [2],"MIC [1, 3]"
COC(=O)CCCNC(=O)c1ccsc1NC(=O)c1nc2ccccc2s1 [Compound 236],–,> 50 µg/mL,–
CCOC(=O)NC(=O)c1ccsc1NC(=O)Cc1nc2ccccc2s1 [Compound 238],–,25 to 50 µg/mL,–
CCOC(=O)NC(=O)c1ccsc1NC(=O)c1cc2c(s1)CCCC2 [Compound 239],–,> 50 µg/mL,–
CCOC(=O)NC(=O)c1ccsc1NC(=O)c1nc(-c2ccccc2)cs1 [Compound 240],–,> 50 µg/mL,–
CCOC(=O)NC(=O)c1ccsc1NC(=O)c1ccc(-c2csc(C)n2)cc1 [Compound 241],–,> 50 µg/mL,–
CCOC(=O)NC(=O)c1ccsc1NC(=O)c1cc(=O)c2ccccc2o1 [Compound 400],–,< 25 µg/mL,< 1 µg/mL
CC(C)OC(=O)NC(=O)c1ccsc1NC(=O)c1cc(=O)c2ccccc2o1 [Compound 401],–,< 25 µg/mL,< 1 µg/mL
CCOC(=O)NC(=O)c1ccsc1NC(=O)c1ccc2nonc2c1 [Compound 402],–,< 25 µg/mL,< 1 µg/mL
CC(C)OC(=O)NC(=O)c1ccsc1NC(=O)c1ccc2nonc2c1 [Compound 403],–,< 25 µg/mL,< 1 µg/mL
COc1ccc2c(c1)C=C(C(=O)Nc1sccc1C(=O)NC(=O)OC(C)C)CO2 [Compound 404],–,< 25 µg/mL,< 1 µg/mL
CCOC(=O)NC(=O)c1ccsc1NC(=O)c1cn2ccc(C#N)cc2n1 [Compound 405],–,< 25 µg/mL,1 to 3 µg/mL
O=C(NC(=O)c1ccsc1NC(=O)c1nc2cnccc2s1)OCC(F)(F)F [Compound 406],–,< 25 µg/mL,< 1 µg/mL
CCOC(=O)NC(=O)c1ccsc1NC(=O)c1cc2cccc(F)c2s1 [Compound 407],–,< 25 µg/mL,< 1 µg/mL
CC(C)OC(=O)NC(=O)c1ccsc1NC(=O)c1cc2cccc(F)c2s1 [Compound 408],–,< 25 µg/mL,< 1 µg/mL
CCOC(=O)NC(=O)c1ccsc1NC(=O)c1nc2nc(C)c(Cl)cc2s1 [Compound 409],–,25 to 50 µg/mL,< 1 µg/mL
CC(C)OC(=O)NC(=O)c1ccsc1NC(=O)c1ccc2ncsc2c1 [Compound 410],–,< 25 µg/mL,< 1 µg/mL
CCOC(=O)NC(=O)c1ccsc1NC(=O)c1nc2cc(CNC(=O)OC(C)(C)C)cnc2s1 [Compound 411],–,25 to 50 µg/mL,< 1 µg/mL
CCOC(=O)NC(=O)c1ccsc1NC(=O)c1nc2ccc(OC)cc2s1 [Compound 412],–,> 50 µg/mL,< 1 µg/mL
CCOC(=O)NC(=O)c1ccsc1NC(=O)c1ccc2sc(C(C)C)nc2c1 [Compound 413],–,> 50 µg/mL,< 1 µg/mL
CCOC(=O)NC(=O)c1ccsc1NC(=O)c1ccc2sc(C3CC3)nc2c1 [Compound 414],–,> 50 µg/mL,< 1 µg/mL
CCOC(=O)NC(=O)c1ccsc1NC(=O)c1ccc2sc(C(C)(C)C)nc2c1 [Compound 415],–,> 50 µg/mL,> 3 µg/mL

SMILES,MIC ([1]; read-out: MIC (I)),CC50 [2],"MIC [1, 3]"
CCOC(=O)NC(=O)c1ccsc1NC(=O)c1nc2cc(CN)cnc2s1 [Compound 416],–,> 50 µg/mL,1 to 3 µg/mL
O=C(Nc1sccc1C(=O)NC(=O)N1CCCCC1)c1nc2cnccc2s1 [Compound 428],–,> 50 µg/mL,1 to 3 µg/mL
O=C(Nc1sccc1C(=O)OC1CCCC1)c1nc2ccccc2s1 [Compound 429],–,> 50 µg/mL,> 3 µg/mL
O=C(Nc1sccc1C(=O)OC1CCCCC1)c1nc2ccccc2s1 [Compound 430],–,> 50 µg/mL,> 3 µg/mL
CCOC(=O)NC(=O)c1cc(C)sc1NC(=O)c1nc2cnccc2s1 [Compound 443],–,–,< 1 µg/mL
COC(=O)c1cccnc1NC(=O)c1nc2ccccc2s1 [Compound 444],–,–,1 to 3 µg/mL
CCOC(=O)NC(=O)c1cc(Cl)sc1NC(=O)c1nc2cnccc2s1 [Compound 445],–,–,< 1 µg/mL
CCOC(=O)NC(=O)c1cc(C)sc1NC(=O)c1nc2ncccc2s1 [Compound 446],–,–,< 1 µg/mL
CC(C)OC(=O)NC(=O)c1ccsc1NC(=O)c1cccc2cc(Cl)ccc12 [Compound 447],–,–,1 to 3 µg/mL
CCOC(=O)NC(=O)c1ccsc1NC(=O)c1ccc2nsnc2c1 [Compound 448],–,–,< 1 µg/mL
CC(C)OC(=O)NC(=O)c1ccsc1NC(=O)c1ccc2nsnc2c1 [Compound 449],–,–,< 1 µg/mL
CCOC(=O)NC(=O)c1ccsc1NC(=O)c1ccnc2cc(Cl)ccc12 [Compound 450],–,–,> 3 µg/mL
CCOC(=O)NC(=O)c1ccsc1NC(=O)c1ccn2cnnc2c1 [Compound 451],–,–,< 1 µg/mL
CC(C)OC(=O)NC(=O)c1ccsc1NC(=O)c1ccn2cnnc2c1 [Compound 452],–,–,< 1 µg/mL
O=C(Nc1sccc1C(=O)Nc1ccccn1)c1nc2cnccc2s1 [Compound 454],–,–,> 3 µg/mL
O=C(Nc1sccc1C(=O)NCC1CCCO1)c1nc2cnccc2s1 (centres unmarked) [Compound 455],–,–,> 3 µg/mL
O=C(Nc1sccc1C(=O)Nc1ncco1)c1nc2cnccc2s1 [Compound 456],–,–,1 to 3 µg/mL
CCOC(=O)NC(=O)c1ccsc1NC(=O)c1nc2ncc(C)cc2s1 [Compound 457],–,–,< 1 µg/mL
CCOC(=O)NC(=O)c1ccsc1NC(=O)c1nc2ccncc2s1 [Compound 458],–,–,> 3 µg/mL

# Reference: US20160194299A1 (priority 2013, published 2016)
